Reference: US4833136A, “Pharmaceutically useful pyrazolo[4,3-b]pyridines” (Beecham Group p.l.c., priority 1986, dated 1989)

What was measured:
[1] = system: mouse sensitized to oxazolone; experiment: Mouse oxazolone screen: topical anti-inflammatory activity in the mouse sensitized to oxazolone; format: in vivo; conditions: oxazolone challenge 100 μg/ear, ears weighed 24 hours later
Experimental: Compounds were tested for topical anti-inflammatory activity in a screen using the mouse sensitized to oxazolone, by a method modified from that of Dietrich and Hess [Int. Arch. Allergy, 38, 246 (1970)].
Mice were sensitized with oxazolone (2 mg in 20 μl EtOH) on a shaved area of the abdomen. 5 days later, the animals received 10 μl THF/MeOH (1:1 v/v) on the right ear and the test compound in the same solvent on the left ear. 1 hour later, the animals were challenged with 100 μg oxazolone in 10 μl acetone on each ear. Ear weights were measured 24 hours later. Percentage inhibition of the inflammatory swelling refers to the increase in weight of left ears (oxazolone plus compound in THF/MeOH) compared to untreated negative controls, as a proportion of the increase in weight of right ears (oxazolone plus THF/MeOH) only similar controls.

cantharidin mouse ear = experiment: Mouse cantharidin screen: topical anti-inflammatory activity, cantharidin mouse ear; format: in vivo; conditions: cantharidin 25 μg/ear, ears weighed after 24 hours
Experimental: Compounds were tested for topical anti-inflammatory activity in a cantharidin mouse ear screen, modified from Swingle, Reiter and Schwartzmiller [Arch. int. Pharmacodyn. 254, 168-176, 1976].
25 μg cantharidin (in 10 μl THF) was applied to both ears. Compound, in the same solvent, was applied at the same time, to the left ear only. Ears were weighed after 24 hours. Percentage inhibition of the acute inflammatory swelling refers to the increase in weight of left ears (cantharidin plus compound) compared to solvent-treated negative controls, as a proportion of the increase in weight of right ears (cantharidin alone) over similar controls.

[2] = dose 200 μg/ear 1 hour before challenge

| Structure (SMILES) | % Inhibition of the inflammatory swelling [1, 2] | % Inhibition of the acute inflammatory swelling (cantharidin mouse ear; dose 500 μg/ear) | % Inhibition of the acute inflammatory swelling (cantharidin mouse ear; dose 200 μg/ear) | also measured |
| --- | --- | --- | --- | --- |
| Cc1cc(NCCO)c2[nH]nc(Br)c2n1 [Compound 1, 3-Bromo-7-(2-hydroxyethylamino)-5-methyl-1H-pyrazolo-[4,3-b]pyridine] | 22% | – | – | – |
| Cc1cc(NCCO)c2[nH]nc(C)c2n1 [Compound 2, 7-(2-Hydroxyethylamino)-3,5-dimethyl-1H-pyrazolo[4,3-b]pyridine] | 52% | 86% | – | – |
| Cc1cc(NCCO)c2[nH]nc(-c3ccccc3)c2n1 [Compound 3, 7-(2-Hydroxyethylamino)-5-methyl-3-phenyl-1H-pyrazolo[4,3-b]pyridine] | – | 98% | – | % Inhibition of the inflammatory swelling ([1]; dose 500 μg/ear 1 hour before challenge): 52% |
| C=CCNc1cc(C)nc2c(C)n[nH]c12 [Compound 4, 7-Allylamino-3,5-dimethyl-1H-pyrazolo[4,3-b]pyridine] | – | – | 83% | – |
| C=CCNc1cc(C)nc2c(-c3ccccc3)n[nH]c12 [Compound 5, 7-Allylamino-5-methyl-3-phenyl-1H-pyrazolo[4,3-b]pyridine] | – | 90% | – | – |
| Cc1cc(NCCO)c2[nH]nc(-c3ccc(Cl)cc3)c2n1 [Compound 6, 3-(4-Chlorophenyl)-7-(2-hydroxyethylamino)-5-methyl-1H-pyrazolo[4,3-b]pyridine] | 31% | – | 68% | – |
| Cc1cc(NCC(C)C)c2[nH]nc(-c3ccccc3)c2n1 [Compound 7, 7-Isobutylamino-5-methyl-3-phenyl-1H-pyrazolo[4,3-b]pyridine] | – | 39% | – | – |
| Cc1cc(NCCO)c2nn(-c3ccccc3)c(C)c2n1 [Compound 13, 7-(2-Hydroxyethylamino)-3,5-dimethyl-2-phenylpyrazolo[4,3-b]pyridine] | – | – | 43% | – |
